According to US20230416830A1, “METHODS AND COMPOSITIONS FOR PREDICTING AND TREATING UVEAL MELANOMA” (INSERM (INSTITUT NATIONAL DE LA SANTÉ ET DE LA RECHERCHE …, priority 2020, published 2023):

Assays:
Format in all cases: cell-based, human
[1] = test system: 92.1 primary uveal melanoma cells; experiment: 3D spheroid (melanosphere) assay of 92.1 cells; conditions: 96 h
Text: FIG. 8: HES6 knockdown inhibits uveal melanoma anchorage-dependent and—independent cell growth. (A) Q-RT-PCR showing HES6 level in OMM2.5 metastatic melanoma cells transfected with a control siRNA (siCtl) or two different pools of multiple siRNA targeting HES6 (siHES6#1 and siHES6#2). (B-C) Colony formation assay of OMM2.5 and OMM1 metastatic uveal melanoma cells treated with control siRNA or with two different pools of multiple siRNA targeting HES6 (siHES6#1 and siHES6#2). Representative images are shown. (D) 92.1 primary uveal melanoma cells expressing doxycycline-inducible control or two different HES6 shRNA in presence of 1 μg/ml doxycycline for 72 hrs. Efficiency is shown by RT-QPCR. ***p<0.001 (E) Colony formation assay of 92.1 primary uveal melanoma cells expressing doxycycline-inducible control or two different HES6 shRNA. Representative images are shown. Crystal violet was next dissolved and measured at 490 nm. ***p<0.001. (F) 3D spheroid assays of 92.1 cells expressing doxycycline-inducible control or HES6 shRNA in presence of 1 μg/ml doxycycline for 96 hrs. Surface of the imaged spheroid area was determined. ***p<0.001. Representative images are shown.
FIG. 9: NOTCH signaling controls uveal melanoma cell growth and migration. […] Surface of the imaged spheroid area was determined. ***p<0.001. […]

NOTCH reporter activity = experiment: NOTCH reporter vector assay in OMM1 uveal melanoma cells
Description: (§1) FIG. 9: NOTCH signaling controls uveal melanoma cell growth and migration. (A) OMIVI1 uveal melanoma cells were transfected with the NOTCH reporter vector before being treated or not with DLL4 1μg/ml in absence or presence of BMS-906024 10 μM. Data shown are mean +SD of three experiments. ***p<0.001 and *p<0.05. (B) 3D spheroid assays of 92.1 cells exposed to DAPT 10μg/ml or BMS-906024 lOpM for 96 h. Surface of the imaged spheroid area was determined. ***p<0.001. Representative images are shown. (C) Boyden chambers experiments with 92.1 cells treated or not with DLL4 1 μg/ml. Data shown are mean+SD of three experiments. **p<0.01. Representative images are shown.
Human uveal melanoma cell lines Me127051, 92.152, OMM2.551 were grown in RPMI glutamax supplemented with 10% FBS, OMM153 were grown in DMEM glutamax supplemented with Sodium Pyruvate 1%, MEM Essential Vitamin Mixture 1%, NEAA 1%, Hepes 1%, 10% FBS, MP46, MP65 (from ATCC) were grown in DMEM/F12 w/Glutamine 10% FBS, Glutamax 2mM, Insulin-Transferin-Selenium 0.5x at 37° C. in a humidified atmosphere containing 5% CO2. LipofectamineTM RNAiMAX and opti-MEM medium were purchased from Invitrogen (San Diego, CA, USA). BMS-906024 (#BM0018) and DAPT (#5942) were obtained from Sigma, DLL4 from R&D systems (#1506-D4-050).

[2] = test system: Me1270 primary uveal melanoma cells; experiment: Migration of Me1270 cells; conditions: Me1270 cells expressing doxycycline-inducible HES6 shRNA, doxycycline 1 μg/ml 48 hrs, DLL4 1 μg/ml
Text: FIG. 6: HES6 expression in primary uveal melanomas controls the motile ability. (A) Relative expression of HES/HEY gene family (TCGA dataset). (B) Human primary uveal Me1270 melanoma cells were transfected with a control siRNA (siCtl) or two different pools of multiple siRNA targeting HES6 (siHES6#1 and siHES6#2). siRNA efficacy is shown by RT-QPCR. (C) Migration Me1270 cells transfected with the indicated siRNA. ***p<0.001. Representative images are shown. (D) Colony formation assay of Me1270 cells transfected with the indicated siRNA. ***p<0.001. Representative images are shown.
FIG. 10: HES6 signaling is a key driver of aggressive and motile phenotypes. Migration of Me1270 cells expressing doxycycline-inducible control or HES6 shRNA in presence of 1 μg/ml doxycycline for 48 hrs in presence or absence of DLL4 1 *g/ml. ***p<0.001. Representative images are shown.
Briefly, a single pulse of 50 nM of HES6 siRNA (Dharmacon L-008408-00-0005 and […]
Cell migration was assessed using a modified Boyden chamber assay with 8-μm pore filter inserts for 24-well plates (BD Bioscience). […] Cells adherent to the underside of the filters were fixed with 4% PFA, stained with 0.4% crystal violet and five random fields at x20 magnification were counted. […]

92.1 cells = experiment: Boyden chamber migration of 92.1 cells; conditions: DLL4 1 μg/ml
Description: as §1
FIG. 11: HES6 inhibition impairs metastatic uveal melanoma cells motile ability. Migration of 92.1 cells expressing doxycycline-inducible control or HES6 shRNA in presence of 1 μg/ml doxycycline for 48 hrs in presence or absence of DLL4 1 μg/ml. ***p<0.001. Representative images are shown.
Cell migration was assessed using a modified Boyden chamber assay with 8-μm pore filter inserts for 24-well plates (BD Bioscience). Cells were seeded on the upper chamber of a trans-well and DMEM 7% FBS placed into the lower chamber. Cells adherent to the underside of the filters were fixed with 4% PFA, stained with 0.4% crystal violet and five random fields at x20 magnification were counted. […]

Compound: O=C(O)CN(CC(=O)O)CC(O)CN(CC(=O)O)CC(=O)O [DAPT, diaminopropanol tetraacetic acid]
- melanosphere formation (surface of spheroid area) ([1]; DAPT 10μg/ml): reduced

Compound: CN1C(=O)[C@@H](NC(=O)[C@H](CCC(F)(F)F)[C@H](CCC(F)(F)F)C(N)=O)N=C(c2ccccc2)c2ccccc21 [BMS-906024, reference compound]
- melanosphere formation (surface of spheroid area) ([1]; BMS-906024 lOpM): reduced
- effect on DLL4-increased NOTCH reporter activity (NOTCH reporter activity; DLL4 1μg/ml in presence of BMS-906024 10 μM): inhibited

Compound: DLL4: Delta-like ligand 4, NOTCH natural ligand, from R&D systems (#1506-D4-050)
- migration in HES6 knockdown cells [2]: could no longer increased migration
- migration in HES6 knockdown cells (92.1 cells; 92.1 cells expressing doxycycline-inducible HES6 shRNA, doxycycline 1 μg/ml 48 hrs): could no longer increased migration
- uveal melanoma cell migration (92.1 cells; 92.1 cells): enhanced
- NOTCH reporter activity (NOTCH reporter activity; DLL4 1μg/ml): increased
